Molecules are shown by their SMILES. The source made the active and inactive calls.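 Rule for the calls: active = viability under 80% of untreated control mean at any tested dose, taken as cytotoxic; inactive = the rest.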

This is an account of results in PubChem BioAssay AID504755 (Southern Research Specialized Biocontainment Screening …, 2011).

This assay has as its system PC3 viability, CellTiter-Glo luminescence, 72 h. As to the kind of experiment: PC3 prostate cell cytotoxicity, dose response, cytotoxicity control for HSV oncolysis enhancer project, selected hits (AID 504755).
For `COc1cc(OC)cc(C(=O)OCCN2CCN(CCOC(=O)c3cc(OC)cc(OC)c3)CC2)c1`, the CC50 was > 100 µM (inactive). The same measure for `COc1cc(C(=O)NCCCN2CCCN(CCCNC(=O)c3cc(OC)c(OC)c(OC)c3)CC2)cc(OC)c1OC`: > 100 µM (inactive); for `COc1cc(OC)cc(C(=O)OCCCN2CCN(CCCOC(=O)c3cc(OC)cc(OC)c3)CC2)c1`: 102 µM. The same measure for `CNCCN(C)CCCOC(=O)c1ccc(F)cc1`: > 100 µM (inactive); for `COc1cc(C(=O)OCCCN2CCCN(CCCOC(=O)c3cc(OC)c(OC)c(OC)c3)CC2)cc(OC)c1OC`: > 100 µM (inactive); for `O=C(CCN1CCCN(CCC(=O)Nc2ccccc2)CC1)Nc1ccccc1`: > 100 µM (inactive).

As for `COc1ccc(C(=O)OCCN2CCN(CCOC(=O)c3ccc(OC)cc3)CC2)cc1`, the CC50 is > 100 µM (inactive). The same measure for `COc1cc(OC)cc(C(=O)OCCCN2CCCN(C)CC2)c1`: > 100 µM (inactive). For `COc1ccc(N2C(=O)CC(N3CCCN(C4CC(=O)N(c5ccc(OC)cc5)C4=O)CC3)C2=O)cc1` (stereo not drawn) the value was > 100 µM (inactive). The same measure for `COc1cc(C(=O)OCCCN2CCCN(C(=O)OC(C)(C)C)CC2)cc(OC)c1OC`: > 100 µM (inactive); for `COc1cc(OC)cc(C(=O)OCCCNCCNCCCOC(=O)c2cc(OC)cc(OC)c2)c1`: 31.7 µM. For the compound `COc1cc(C(=O)OCCN2CCN(CCOC(=O)c3cc(OC)c(OC)c(OC)c3)CC2)cc(OC)c1OC`, the CC50 was > 100 µM (inactive). The same measure for `O=C(OCCCN1CCCN(CCCOC(=O)c2ccc(F)cc2)CC1)c1ccc(F)cc1`: 73.6 µM; for `COc1cc(OC)cc(C(=O)OCCCN2CCN(C)CC2)c1`: > 100 µM (inactive); for `CN1CCCN(CCCOC(=O)c2ccccc2)CC1`: > 100 µM (inactive). The same measure for `NCCCN1CCCN(CCCN)CC1`: > 100 µM (inactive); for `COc1ccc(C(=O)OCCN2CCCN(C)CC2)cc1`: > 100 µM (inactive); for `COc1cc(NC(=O)Nc2cc(OC)c(OC)c(OC)c2)cc(OC)c1OC`: > 100 µM (inactive).

With `O=C(OCCCN1CCOCC1)c1ccc(F)cc1`, the CC50 is > 100 µM (inactive). For `COc1cc(OC)cc(C(=O)OCCN2CCOCC2)c1` the value was > 100 µM (inactive). For `COc1ccc(C(=O)OCCCN2CCCN(C)CC2)cc1` the value was > 100 µM (inactive).

On to `COc1cc(C(=O)OCCN2CCCN(C)CC2)cc(OC)c1OC`, for which the CC50 was > 100 µM (inactive). For `COc1ccc(C(=O)NCCCN2CCCN(C)CC2)cc1` the value was > 100 µM (inactive). The same measure for `COc1cc(OC)cc(C(=O)OCCCN2CCCN(Cc3ccccc3)CC2)c1`: > 100 µM (inactive); for `COc1cc(COCCCN2CCCN(CCCOCc3cc(OC)c(OC)c(OC)c3)CC2)cc(OC)c1OC`: > 100 µM (inactive). For the compound `COc1cc(NC(=O)N2CCCN(C(=O)Nc3cc(OC)c(OC)c(OC)c3)CC2)cc(OC)c1OC`, the CC50 was > 100 µM (inactive). The same measure for `COc1cc(C(=O)OCCN2CCOCC2)cc(OC)c1OC`: > 100 µM (inactive); for `COc1cc(C(=O)OCCCN(C)CCN(C)CCCOC(=O)c2cc(OC)c(OC)c(OC)c2)cc(OC)c1OC`: > 100 µM (inactive); for `COc1ccc(C(=O)OCCCN2CCCC2)cc1`: > 100 µM (inactive). For `COc1cc(-c2cn(CCCN3CCCN(CCCn4cc(-c5cc(OC)c(OC)c(OC)c5)nn4)CC3)nn2)cc(OC)c1OC` the value was > 100 µM (inactive); for `CNCCN(C)CCOC(=O)c1cc(OC)c(OC)c(OC)c1`, > 100 µM (inactive); for `COc1ccc(C(=O)OCCN2CCCN(Cc3ccccc3)CC2)cc1`, > 100 µM (inactive). The same measure for `COc1cc(C(=O)OCCCN2CCN(CCCOC(=O)c3cc(OC)c(OC)c(OC)c3)CC2)cc(OC)c1OC`: > 100 µM (inactive); for `COc1cc(C(=O)OCCCN2CCN(C)CC2)cc(OC)c1OC`: > 100 µM (inactive). Turning to `COc1cc(C(=O)OCCCN2CCCNCC2)cc(OC)c1OC`, the CC50 is > 100 µM (inactive). The same measure for `COc1ccc(C(=O)OCCN2CCN(C)CC2)cc1`: > 100 µM (inactive); for `O=C(CN1CCCN(CC(=O)CN2C(=O)c3ccccc3C2=O)CC1)CN1C(=O)c2ccccc2C1=O`: > 100 µM (inactive); for `CNCCN(C)CCOC(=O)c1cc(OC)cc(OC)c1`: > 100 µM (inactive).

In the case of `COc1cc(OC)cc(C(=O)OCCN2CCCN(C)CC2)c1`, the CC50 is > 100 µM (inactive). With `O=C(/C=C/c1ccc2c(c1)OCO2)N1CCCN(C(=O)/C=C/c2ccc3c(c2)OCO3)CC1`, the CC50 was > 100 µM (inactive). On to `COc1cc(CN2CCCN(Cc3cc(OC)c(OC)c(OC)c3)CC2)cc(OC)c1OC`, for which the CC50 is > 100 µM (inactive). The same measure for `COc1cccc(C(=O)NCCCN2CCN(CCCNC(=O)c3cccc(OC)c3)CC2)c1`: > 100 µM (inactive); for `COc1cc(C(=O)OCCN2CCCN(CCOC(=O)c3cc(OC)c(OC)c(OC)c3)CC2)cc(OC)c1OC`: > 100 µM (inactive); for `COc1cc(C(=O)OCCCN2CCCN(C)CC2)cc(OC)c1OC`: > 100 µM (inactive). For `COc1ccc(C(=O)OCCCNCCNCCCOC(=O)c2ccc(OC)cc2)cc1` the value was 24.1 µM. For `CNCCN(C)CCCOC(=O)c1ccc(OC)cc1` the value was > 100 µM (inactive); for `O=C(NCCCN1CCN(CCCNC(=O)c2ccc3c(c2)OCO3)CC1)c1ccc2c(c1)OCO2`, > 100 µM (inactive); for `COc1ccc(C(=O)OCCN2CCCN(CCOC(=O)c3ccc(OC)cc3)CC2)cc1`, > 100 µM (inactive). As to `COc1cc(C(=O)N2CCCN(C(=O)c3cc(OC)c(OC)c(OC)c3)CC2)cc(OC)c1OC`, the CC50 is > 100 µM (inactive). The same measure for `COc1cc(OC)cc(C(=O)OCCN2CCN(C)CC2)c1`: > 100 µM (inactive). For `COc1cc(C(=O)OCCCN2CCCN(C(=O)c3ccccc3)CC2)cc(OC)c1OC` the value was > 100 µM (inactive). The same measure for `CN1CCN(CCCOC(=O)c2ccccc2)CC1`: > 100 µM (inactive); for `CN1CCCN(CCCOC(=O)c2ccc(F)cc2)CC1`: > 100 µM (inactive); for `COc1cc(C(=O)OCCCN2CCCN(C(C)=O)CC2)cc(OC)c1OC`: > 100 µM (inactive). On to `CC(=O)NCCCN1CCCN(CCCNC(C)=O)CC1`, for which the CC50 is > 100 µM (inactive).

With `COc1cc(OC)cc(C(=O)OCCN2CCCN(CCOC(=O)c3cc(OC)cc(OC)c3)CC2)c1`, the CC50 was > 100 µM (inactive). The same measure for `COc1cc(C(=O)OCCN2CCCC2)cc(OC)c1OC`: > 100 µM (inactive); for `COc1ccc(C(=O)OCCCN2CCOCC2)cc1`: > 100 µM (inactive); for `COc1cc(OC)cc(C(=O)OCCN2CCCC2)c1`: > 100 µM (inactive). With `O=C(OCCCN1CCN(CCCOC(=O)c2ccccc2)CC1)c1ccccc1`, the CC50 was > 100 µM (inactive). The same measure for `COc1cc(C(=O)OCCCN2CCOCC2)cc(OC)c1OC`: > 100 µM (inactive). For `O=C(OCCCN1CCN(CCCOC(=O)c2ccc(F)cc2)CC1)c1ccc(F)cc1` the value was > 100 µM (inactive). For `COc1ccc(C(=O)OCCCN2CCN(C)CC2)cc1` the value was > 100 µM (inactive). In the case of `CN1CCN(CCCOC(=O)c2ccc(F)cc2)CC1`, the CC50 was > 100 µM (inactive). In the case of `COc1cc(C(=O)OCCN2CCCN(Cc3ccccc3)CC2)cc(OC)c1OC`, the CC50 was > 100 µM (inactive). Take `COc1cc(C(=O)OCCN2CCN(C)CC2)cc(OC)c1OC`: the CC50 was > 100 µM (inactive). For `COc1ccc(C(=O)OCCCN2CCN(CCCOC(=O)c3ccc(OC)cc3)CC2)cc1` the value was > 100 µM (inactive); for `COc1cc(C(=O)OCCCN2CCCC2)cc(OC)c1OC`, > 100 µM (inactive).
